The record followed here is PubChem BioAssay AID2060912 (Molecular Pharmacology Branch, DTP, NCI, 2025).

Values joined by “and” are separate entries in the source; they are usually repeats but may differ in a detail not shown here. Identical values can stand only once. Bounds are passed on as bounds.

The subject of the assay is HUVEC/MSC spheroids viability. Briefly: Human HUVEC/MSC cell line growth inhibition [KRAS2].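 For viability, T/C: percent of DMSO vehicle control luminescence so 100% = untreated viability.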 The conditions noted are these: for viability, T/C: stronger effect = lower value. The source says: Multicellular complex tumor spheroid response to RAS pathway inhibitors in combination with a targeted agents in patient-derived cell lines with oncogenic KRAS variants from multiple cancer types
A high-throughput screen of multi-cell type tumor spheroids was designed to identify active combinations of targeted small molecules and KRAS pathway inhibitors. Complex spheroids include a stromal component modeled by human endothelial cells (HUVEC) and fibroblasts modeled by human mesenchymal stem cells (MSCs). The concentration ranges selected for each drug and investigational agent were based upon clinically achievable concentrations if the clinical Cmax of the agent was known. * [This particular assayID is a followup dataset requested by reviewers of the manuscript. It is a test of the HUVEC and MSC without the tumor cells, and was conducted using different drug plates and a different plate layout.]
Compounds. The drugs and investigational agents: BI-3406 (NSC825286), BAY-293 (NSC824723), batoprotafib (TNO155; NSC825523), sotorasib (AMG 510; NSC818433), MRTX1257 (NSC819558), elimusertib (BAY 1895344; NSC800525), molibresib (GSK525762; NSC774829), temuterkib (LY3214996; NSC803410), venetoclax (NSC766270), alisertib (NSC759677), olaparib (NSC753686), talazoparib (NSC767125), erdafitinib (NSC781556), ipatasertib (NSC767898), cabozantinib (NSC761068), nintedanib (NSC756659), abemaciclib (NSC768073), docetaxel (NSC628503), trametinib (NSC758246), and sapanisertib (NSC764658) were obtained from the National Cancer Institute (NCI) Developmental Therapeutics Program Chemical Repository. The FDA-approved anticancer drug set is available from the Developmental Therapeutics Program. […] The stock solutions were prepared in dimethyl sulfoxide (DMSO, Sigma-Aldrich, St. Louis, MO, cat. D2650) at 800-fold the tested concentration and stored at -70 degrees C prior to their use. All drugs and investigational agents were tested over a range starting from a high concentration at or near the clinical Cmax and decreasing in half-log increments. If the clinical Cmax for an agent had not been determined, the highest concentration tested was 10 microM.
Cell Culture. All cells were maintained in an incubator at 37 degrees C and 5% CO2 with 95% humidity. The PDC lines were cultured according to standard operating procedures established by the NCI PDMR (https://pdmr.cancer.gov/sops/default.htm). Briefly, all PDCs were thawed and cultured in Matrigel-coated flasks prepared with a working solution of 1X Ham's F-12 nutrient mix, without supplementation (Invitrogen, Waltham, MA, cat. 11765054), 100 U/mL penicillin-streptomycin (Invitrogen, cat. 15140122), and 2.5% Matrigel (Corning Inc., Corning, NY, cat. 354248) for the first three passages. All PDCs were cultured in complete DMEM/F-12 media containing advanced DMEM/F-12 (Invitrogen, cat. 12634028), 4.9% defined fetal bovine serum, heat inactivated (HyClone Laboratories Inc., Logan, UT, cat. SH30070.03HI), 389 ng/mL hydrocortisone (Sigma-Aldrich, cat. H4001), 9.7 ng/mL human EGF recombinant protein (Invitrogen, cat. PHG0313), 23.4 microg/mL adenine (Sigma-Aldrich, cat. A2786), 97.3 U/mL penicillin-streptomycin (Invitrogen, cat. 15140122), 1.9 mM L-glutamine (Invitrogen, cat. 25030081), and 9.7 microM Y-27632 dihydrochloride (Tocris Bioscience, Bristol, United Kingdom, cat. 1254). The PDCs were cultured in complete DMEM/F12 media without 9.7 microM Y-27632 dihydrochloride for at least two passages prior to the screen. The established cell line HOP-62 was cultured in RPMI 1640 medium, HEPES (Invitrogen, cat. 22400105) with 10% defined fetal bovine serum (HyClone Laboratories Inc., cat. SH30070.03) and 2 mM L-glutamine (Invitrogen, cat. 25030081). The pooled donor HUVEC were cultured in endothelial cell growth medium 2 (PromoCell, Heidelberg, Germany, cat. C-22011) and the hMSC were cultured in mesenchymal stem cell growth medium 2 (PromoCell, cat. C-28009). […]

As a reminder, the viability, T/C is the result in the treated group divided by that in the control group, in per cent. The term IC50 denotes the concentration at which inhibition is half-maximal.

Take `CC(C)NCC(C(=O)N1CCN(c2ncnc3c2C(C)CC3O)CC1)c1ccc(Cl)cc1` (centres undefined): the viability, T/C (compound 0.316 µM) was 83.5% [middle of 5 runs]; the viability, T/C (compound 1 µM) was 71.7% [middle of 5 runs]; the viability, T/C (compound 10 µM) was 51.3% [middle of 5 runs]. Also, the IC50 (curve of compound) is > 10 µM and 2.61 µM and 9.3 µM.
For `CC1OCC2(CCN(c3cnc(Sc4ccnc(N)c4Cl)c(N)n3)CC2)C1N` (centres undefined), the IC50 is greater than 10 µM (compound alone, run of 05/05/2024) and greater than 10 µM (curve of compound).
As to `COC(=O)c1ccc2c(C(=Nc3ccc(N(C)C(=O)CN4CCN(C)CC4)cc3)c3ccccc3)c(O)[nH]c2c1`, the viability, T/C (compound 1 µM) was 58.1% [middle of 5 runs]; the viability, T/C (compound 3.16 µM) is 39.6% [middle of 5 runs]; the viability, T/C (compound 10 µM) was 0.37% [middle of 5 runs]. In addition, the IC50 (curve of compound) is 1.96 µM [middle of 5 runs].
As for `O=C(c1cc(Cc2n[nH]c(=O)c3ccccc23)ccc1F)N1CCN(C(=O)C2CC2)CC1`, the viability, T/C is 90.8% [middle of 5 runs] (compound 0.316 µM), 89.3% [middle of 5 runs] (compound 1 µM) and 95.3% [middle of 5 runs] (compound 10 µM). For the setting “curve of compound”, the IC50 was greater than 10 µM.
